Experimental data published in patent US8859464B2, “Nitrogen containing isethionic acid salts in field ready spray and tank mixes” (Huntsman Petrochemical L LC, priority 2009, dated 2014).

System: target weed species
Assay: Water conditioning efficacy in greenhouse evaluation of isopropylamine glyphosate spray tank solutions in hard water
Assay type: in vivo
Settings: aqueous spray tank solutions of isopropylamine glyphosate, standard hard water, absence of any surfactant, compared with ammonium sulfate
Procedure: Isethionic acid (Example 1) and ten neutralization products of isethionic acid (Examples 2-11) were used to treat aqueous spray tank solutions of isopropylamine glyphosate in order to measure the water conditioning efficacy of isethionic acid and the other isethionates. Isethionic acid was neutralized with sodium (Examples 2, 6, and 7), ammonia (Examples 3-5) and tallow amine ethoxylates (Examples 8-11—SURFONIC® T-5 surfactant). These candidates were evaluated against the standard agricultural water conditioner, ammonium sulfate in an aqueous tank mix of isopropylamine glyphosate (Control Example). Specifically, the candidates were tested for their ability to condition water as a function of the suppression of water hardness inhibition of pesticides, such as glyphosate. All evaluations were run in the absence of any surfactant in standard hard water as defined by the World Health Organization standard hard waters. The evaluations were run in greenhouse conditions over a variety of plant species, including determining injury to crop species. The reported data was percent control of target weed species and percent injury to crop species. All evaluations (except for one industry standard) were conducted in the absence of any surfactant.

## O=S(=O)(O)CCO [isethionic acid, Isethionic Acid]
  water conditioning efficacy (suppression of water hardness inhibition of glyphosate): functioned at a level comparable to that of the agricultural industry standard ammonium sulfate
